Source: patent US6117859A, “Method of relieving chronic inflammation by using 5-alkylsulfonylsalicylanilides” (The Research Foundation of State University of New York, priority 1999, dated 2000)

What was measured:
[1] = tested on: ear weight gain produced by multiple doses of TPA in mice; test: Chronic (multiple dose) TPA mouse ear inflammation assay, ear weight gain; type: in vivo, mouse (female CD-1)
Experimental: The acute skin inflammation model described in Example 1, tests the ability of a compound to prevent inflammation and thus must be applied prophylactically. Most clinical situations, however, are present as chronic inflammatory conditions. […] The effects of the compounds of the present invention and Salifluor on chronically inflamed skin was measured in the mouse ear model that utilizes multiple TPA doses over a 10-day period to produce the inflammatory response.
The assay used female CD-1 mice (7-9 weeks of age). Following a 2-week quarantine, mice were randomly assigned to test groups (5 mice/groups). TPA (10 uL of 0.01 TPA in acetone) was administered to both the inner and outer surface of each ear (2μg/ear) on day 0,2,4,7, and 9 on protocol. On Day 7,8 and 9, two applications of test article were applied to each ear 2 and 4 hours after dosing with TPA. The test articles were administered in 10 uL aliquots to both the inner and outer surface of each ear (20 μl total/dose). […] Hydrocortisone-17-valerate (HCV, 20μg/ear) was employed as a positive control. Mice were sacrificed at Day 10 on protocol and uniform punch biopsies (approximately 8 mm dia.) were taken from each ear. While on protocol, dermal irritation was scored semiquantitatively at Day 1,3,5,8, and 10.
(§1) Inhibition of TPA stimulated increased ear weight was used as an initial measure of efficacy for all of the agents tested. One biopsy from each mouse was also quick frozen and stored at -70° C. for later assay of myleoperoxidase, an enzyme associated with infiltrating PMN, or other measure of efficacy. The remaining biopsy from each mouse treated with Trifluorosal or HCV was fixed in formalin and processed for histopathologic evaluation, including measurement of cellular infiltration (PMNs, endothelial cells, macrophages) and epidermal thickness at 20 random sites along the length of the specimen.
Initially, a dose-response curve for multiple doses of TPA to produce mouse ear weight gain was generated in order to determine the concentration of TPA to be employed in the inhibition studies. […] Another major difference between the multiple TPA dose (or chronic assay for inflammation) and the single TPA dose (or acute assay for inflammation) in the mouse ear is sensitivity to Non-steroidal antiinflammatory drugs (NSAIDs) and antihistamines.

[2] = tested on: TPA treated mouse ear skin; test: Histopathology of ear biopsies after multiple doses of TPA (epidermal thickness, dermal cellularity); type: in vivo, mouse (female CD-1)
Experimental: The assay used female CD-1 mice (7-9 weeks of age). Following a 2-week quarantine, mice were randomly assigned to test groups (5 mice/groups). TPA (10 uL of 0.01 TPA in acetone) was administered to both the inner and outer surface of each ear (2μg/ear) on day 0,2,4,7, and 9 on protocol. On Day 7,8 and 9, two applications of test article were applied to each ear 2 and 4 hours after dosing with TPA. The test articles were administered in 10 uL aliquots to both the inner and outer surface of each ear (20 μl total/dose). The candidate drugs were tested at several different concentrations (e.g., 5, 1.25, and 0.125 mg/ear) to determine a maximum effective dose within a range that could be effectively applied. Hydrocortisone-17-valerate (HCV, 20μg/ear) was employed as a positive control. Mice were sacrificed at Day 10 on protocol and uniform punch biopsies (approximately 8 mm dia.) were taken from each ear. While on protocol, dermal irritation was scored semiquantitatively at Day 1,3,5,8, and 10.
as §1
In order to confirm the subjective observations, quantitative determinations of 3 parameters (epidermal thickness, dermal thickness, and dermal cellularity) in the skin of negative controls (acetone), positive controls (TPA), and TPA treated skin treated with 3 doses of test article (Trifluorosal) and hydrocortisone were carried out. Epidermal thickness reflects the reactive proliferative activity induced by TPA in the […]: dermal thickness reflects primarily Ad edema but may also be affected by other phenomena, such as formation of granulation tissue, collagen synthesis, the activity of myofibroblasts, etc. Cellularity of the dermis is frequently used as a surrogate marker of inflammatory changes in the dermis.
Determination of the epidermal thickness was performed under the microscope with a calibrated scale placed in the eyepiece. Ten determinations were carried out in the epidermis covering the outside of the ear using a 40× objective and a 10× eyepiece (400× total). The measurements were taken from the basal side of the basal layer (basement membrane) to the outer side of the last nucleated cell of the […]. The average of the 10 measurements expressed in microns was entered in the table.
Determination of dermal thickness was performed using a similar technique. To avoid variability caused by the difference in sizes between the base and tip of the ear, only 3 measurements were performed in the center of the sample. The measurements were performed from the basement membrane of the external and internal epithelial and therefore include, in addition to both dermis (external and internal), the cartilage.
Cellularity of the dermis was calculated by projecting a calibrated grid into the dermis and counting cells in the known area of the dermis. Areas of hair follicles or sebaceous glands were avoided. Five fields were counted and the results were adjusted to the number of cells in 1,000 square microns.
The results of individual animals were entered in the table and the averages and standard deviation were calculated using an EXCEL database. In addition, the results were also expressed as a percentage of the control (acetone treated). Furthermore, the percentage of inhibition of the test articles were calculated using the following formula: [formula]

[3] = Single dose oral tolerance in rats; type: in vivo, rat (male weaning Sprague-Dawley); conditions: single dose 2.5 or 0.75 g/kg in 5% CMC, 7 days
Experimental: To test for tolerance of the administered compounds, male weaning Sprague-Dawley rats were fed in a single dose of 2.5 or 0.75 g/kg of TMF-12, TMF-10, TMC-10 or TPC-10 in 5% carboxymethyl cellulose (CMC) or CMC alone. […] At completion of the 7 day observation period, necropsies were performed on all animals.

## CCCCCCCCCCCCS(=O)(=O)c1ccc(O)c(C(=O)Nc2cccc(C(F)(F)F)c2)c1 [TMF-12]
[1]; 500μg/ear, first experiment
  Inhibition of ear weight gain: 28%
[1]; 1.25 mg/ear
  Inhibition of ear weight gain: 37.5%
[1]; 2.5 mg/ear
  Inhibition of ear weight gain: 27.3%
[1]; 5.0 mg/ear (printed 'mc/ear' for Trifluorosal)
  Inhibition of ear weight gain: 34.4%
[1]; 1.25-5 mg/ear, remaining experiments
  Activity in chronic assay (in words): demonstrated consistent activity
[1]; multiple doses of TPA
  % Inhibition of Ear Weight Gain, Actual: 37.3%
[1]; multiple doses of TPA, head prints 1.25 eg/ear
  % Inhibition of Ear Weight Gain, Relative to Hydrocortisone (HCV) = 100%: 61.8%
[2]; 1.25 mg/ear
  % Inhibition, Dermal Cellularity: 24.6%
  % Inhibition, Epidermal Thickness: 48.0%
[2]; 2.50 mg/ear
  % Inhibition, Dermal Cellularity: 64.3%
  % Inhibition, Epidermal Thickness: 11.4%
[2]; 5.00 mg/ear
  % Inhibition, Dermal Cellularity: 47.6%
  % Inhibition, Epidermal Thickness: 30.0%
[2]; histopathology
  Blood vessel prominence (in words): Blood vessels were not as prominent
[2]; histopathology, FIG. 1
  Cellularity of the dermis (in words): reduced the epidermal thickness as well as the cellularity of the dermis
  Epidermal thickness (in words): reduced the epidermal thickness
[3]
  Illness or deaths: No illness or deaths occurred
